Each structure is given as a SMILES string.

For this series the following is noted: fluorescence intensity over time.

Consider `CC1(C)C(/C=C/C=C/C=C/C=C2\N(CCCCS(=O)(=O)O)c3ccc4ccccc4c3C2(C)C)=[N+](CCCCS(=O)(=O)[O-])c2ccc3ccccc3c21` [ICG, indocyanine green], for which the fluorescence half-life result is “about three”.

(Values after patent US20200246493A1, “DRUG-IODINATED OIL DISPERSION, METHOD FOR PREPARING SAME AND ITS APPLICATION IN EMBOLIZATION TREATMENT FOR LIVER CANCER” (Xiamen University, priority 2019, published 2020).)
